Assay results reported in patent US6756368B1, “Use of cobalt chelates for treating or preventing virus infection” (The Trustees of Columbia University in the City of New York, priority 1999, dated 2004).
Several values for one entry are separate records, joined by “and”; a condition that tells them apart may be missing. Identical values can stand only once. Entries after “also recorded” stand apart in the source; their conditions may differ. Like-named read-outs stand apart in the source and are kept apart here.

Experiments:
[1] = tested on: vesicular stomatitis virus (VSV); assay type: cell-based, VSV strain Indiana
HSV-1 [2] = tested on: HSV-1
[3] = tested on: adenovirus serotype 2 (Ad2); experiment: Fluorescence focus assay, Ad2 on A549 cells; assay type: cell-based; settings: for Percent inhibition, Adenovirus: Ad2, A549
Protocol: A549 or 293 cell monolayers were infected with Ad2 or Ad-CMV-null at 0.1 fluorescence focus units (FFUs) per cell for 2 h in 2% BCS DMEM in the presence and absence of 50 μg/ml CTC-96. At 29 h postinfection the plates were washed twice with PBS and fixed with methanol for 4 min at room temperature. Cells were washed twice with PBS, incubated in 500 μl 1:100 rabbit polyclonal anti-adenovirus serum in PBS for 30 min at room temperature and washed with PBS. Plates were then incubated in 500 μl 1:40 goat anti-rabbit IgG conjugated FITC in PBS. Foci were visualized using a Leitz Dialux microscope with an optical system for the selective visualization of FITC and then counted.
A549s were plated on 35 mm dishes at 8×10^5 cell/plate in 10% FBS DMEM
added 19.25 μl stock to 50 μl total of each respective media (+/− 0, 5, 25 or 50 μg/ml CTC96)
After 2 h-added 3 ml of each respective media
Incubated @37° C. for 28 h (total)

HSV-1 [4] = experiment: Accumulation of α4 and α27 mRNAs (RT-PCR); assay type: cell-based, HSV-1 Glasgow strain 17
Protocol: Vero cell monolayers were either mock infected or infected. The accumulation of α4 and α27 mRNAs from infected cells was determined as previously described [Lium and Silverstein 1997] by coupled reverse transcription (RT) and polymerase chain reaction (PCR) using the commercial kit, EZ rTth RNA PCR kit (Perkin-Elmer) as specified by the manufacturer with modifications. The primers used during RT were 4-2 and ICP27-L-RT [Lium and Silverstein 1997]. Following RT, secondary primers were added for PCR (4-1 and ICP27-U-RT) (55). These primers result in amplification of a 100 basepair (bp) fragment and a 220 bp fragment from the α4 and α27 genes, respectively.
The failure to detect virus specified polypeptides of any kinetic class in cells infected in the presence of CTC96 led us to ask if virus transcripts accumulated under these conditions. Accordingly, virus was incubated with 50 μg/ml of drug for 10 min and then either washed out by dilution and used to infect cells or used directly to infect cells. At 2 and 4 hr post infection cells were harvested and total infected cell RNA was prepared for analysis by RT-PCR for the presence of transcripts from the ∝4 and ∝27 genes. […] When these studies are carried out to as long as 8 hr pi there is still no detectable accumulation of virus-specified transcripts (data not shown). […] (FIG. 15).

HSV-1 [5] = experiment: Fractionation and in situ localization of virus DNA; assay type: cell-based, HSV-1 Glasgow strain 17
HSV-1 [6] = experiment: HSV-1 DNA replication in the presence of drug (Southern/slot blot); assay type: cell-based, HSV-1 Glasgow strain 17
Protocol: (i) DNA preparation. Vero cells infected with MOI of 5 were infected and maintained in the presence and absence of 50 μg/ml CTC-96. Infected cells were harvested by freezing (−80° C.) at the indicated times postinfection. Total infected cell DNA was extracted as described (54).
(ii) Slot blot analysis. Slot blot analysis was performed as previously described (55). Briefly, equal amounts of nuclear or cytoplasmic infected cell DNAs were blotted onto GeneScreen Plus using a MINIFOLD II Slot Blot System (Schleicher and Schuell, Keene, N.H.) and cross-linked with a Stratalinker 2400 (Stratagene, La Jolla, Calif.) using UV-irradiation. A 4.5 kB SalI-DdeI fragment from the α4 gene of HSV-1 which had been labeled with [α-32P]dCTP (NEN Life Sciences Products, Boston, Mass.) by random priming (Boehringer Mannheim, Indianapolis, Ind.) was hybridized to the nuclear and cytoplasmic DNAs and washed as specified by the manufacturer. Bands were visualized using autoradiography.
A series of experiments were initiated to determine the point in the replication cycle where CTC-96 acts. Our first study examined the effects of drug on replication of virus DNA. Cells were infected at an moi of 5 in the presence of the absence of drug and harvested by trypsinization at 1 and 9 hr post infection. Virus DNA was extracted from cells by selective salt precipitation and the amount of virus-specific DNA was assayed after transfer to a nitrocellulose membrane by Southern blot hybridization using a phophorimager to quantitate signal.
Cells were infected and at various intervals drug was added and left on the infected cell cultures until 24 hr pi. At this time samples were harvested and DNA extracted and analyzed as described above. […] By 12 hr post infection the bulk of DNA replication is complete as there is only a small difference between the hybridization signal generated in an untreated 24 hr sample when compared with a sample treated at 12 hr and analyzed at 24 hr post infection (FIG. 13).

poliovirus = assay type: cell-based, poliovirus strain P1 Mahoney
Vero cells = experiment: Cytotoxic effect on Vero cell monolayers
HSV-1 [7] = assay type: cell-based, HSV-1 Glasgow strain 17; settings: CTC-96 added at 16 hpi, virus harvested 4 hours later

CC(/C=C(/C)[O-])=NCCN=C(C)/C=C(/C)[O-].Cc1ncc[nH]1.Cc1ncc[nH]1.[Br-].[Co+3] [CTC-96]
inhibition of VSV ([1]; 50 μg/ml, Vero cells): 100%
% Inhibition ([1]; VSV (Indiana), Vero, 50 μg/ml of CTC-96, plaque assay): 100%
VSV plaques ([1]; dilution −5, 50 μg/ml CTC96): 0
VSV plaques ([1]; dilution −6, 50 μg/ml CTC96): 0
VSV plaques ([1]; dilution −7, 50 μg/ml CTC96): 0
% Inhibition (HSV-1 [2]; HSV-1 (17), Vero, 50 μg/ml of CTC-96, plaque assay): 100%
No. of Plaques (HSV-1 [2]; Initial [Drug] 0.016 μg/ml, Final [Drug] 0.016 μg/ml): 114
No. of Plaques (HSV-1 [2]; Initial [Drug] 50 μg/ml, Final [Drug] 0.0083 μg/ml): 46
No. of Plaques (HSV-1 [2]; Initial [Drug] 50 μg/ml, Final [Drug] 50 μg/ml): 0
No. of Plaques (HSV-1 [2]; Initial [Drug] 100 μg/ml, Final [Drug] 0.0016 μg/ml): 23
No. of Plaques (HSV-1 [2]; Initial [Drug] 100 μg/ml, Final [Drug] 100 μg/ml): 0
resistance to HSV-1 after prior incubation of Vero cell monolayers (HSV-1 [2]; cells preincubated with 50 μg/ml CTC-96): partial resistance
HSV-1 plaque formation (HSV-1 [2]; concentrations of CTC-96 >50 μg/ml): completely inhibited
HSV-1 plaque formation (HSV-1 [2]; dilution of the drug after adsorption of the virus): only partially inhibited
plaque formation / infectivity after prior exposure of the virus to the drug (HSV-1 [2]; virus incubated with 50 μg/ml 30 min, drug diluted prior to adsorption): no effect on plaque formation; also recorded: slightly reduced the infectivity
virus survived treatment (HSV-1 [2]; virus suspension treated with drug 1 min, then diluted to final <1 ng/ml): ~50%
HSV-1 plaque formation (HSV-1 [2]; ≧50 μg/ml of CTC-96): completely inhibited
average foci per field ([3]; 25 μg/ml, Plate 1): 26 = 3.9
total foci counted ([3]; 25 μg/ml, Plate 1): 102
average foci per field ([3]; 25 μg/ml, Plate 2): ? = 3.1
total foci counted ([3]; 25 μg/ml, Plate 2): 109
average foci per field ([3]; 50 μg/ml, Plate 1): 47 = 1.6
total foci counted ([3]; 50 μg/ml, Plate 1): 73
average foci per field ([3]; 50 μg/ml, Plate 2): 46 = 1.5
total foci counted ([3]; 50 μg/ml, Plate 2): 70
% Inhibition ([3]; Adenovirus (2), A549, 50 μg/ml of CTC-96, fluorescence focus assay): 36%
Percent inhibition, Adenovirus ([3]; CTC-96 25 μg/ml): 18%
Percent inhibition, Adenovirus ([3]; CTC-96 50 μg/ml): 64%
time in which the action of the drug occurs (HSV-1 [4]): less than 10 min
accumulation of α4 and α27 mRNAs (HSV-1 [4]; 50 μg/ml present from onset of infection, 2 and 4 hr pi): neither the accumulation of α4 nor α27 mRNAs were detectable; also recorded: inhibits α4 and α27 gene expression
accumulation of α4 and α27 mRNAs (HSV-1 [4]; 50 μg/ml present from onset of infection, 2 and 4 hr pi, listed as CTC96): no accumulation
accumulation of α4 and α27 mRNAs (HSV-1 [4]; virus exposed to drug 10 min, drug then diluted/removed): began to accumulate
accumulation of α4 and α27 mRNAs (HSV-1 [4]; virus exposed to drug 10 min, drug then diluted/removed, listed as CTC96): A small amount of immediate early gene RNA is detected
nuclear accumulation of 3H labeled HSV-1 DNA (autoradiography) (HSV-1 [5]): prevented the nuclear accumulation
virus DNA in nuclear and cytoplasmic fractions (HSV-1 [5]): very little detectable virus DNA in either fraction; also recorded: no significant increase in nuclear associated HSV-1 specific DNA
virus DNA associated with infected cells at 1 hr post infection, versus no drug (HSV-1 [6]; 50 μg/ml from onset, harvest 1 hpi): no detectable difference; also recorded: equivalent amount of virus DNA
virus DNA replication on temporal addition of drug (HSV-1 [6]; drug added at various times post infection, harvest 24 hr pi): increasingly more virus DNA replication as drug is added at later times post infection; also recorded: the amount of virus DNA replication increased
increase in accumulation of virus DNA from 1 to 9 hr post infection (HSV-1 [6]; drug treated, moi 5): barely a two-fold increase
% Inhibition (poliovirus; Poliovirus (P1/Mahoney), HeLa, 50 μg/ml of CTC-96, plaque assay): 40%
inhibition of poliovirus (poliovirus; first run, 50 μg/ml): 42%
plaques recovered relative to −CTC-96 (poliovirus; first run, 50 μg/ml): 58%
poliovirus plaques (poliovirus; first run, dilution −6, 50 μg/ml in diluent, no drug in overlay): 91 and 80
poliovirus plaques (poliovirus; first run, dilution −7, 50 μg/ml in diluent, no drug in overlay): 10 and 9
poliovirus plaques (poliovirus; first run, dilution −8, 50 μg/ml in diluent, no drug in overlay): 0
inhibition of poliovirus (poliovirus; second run, 50 μg/ml): 42% inhibition
poliovirus plaques (poliovirus; second run, dilution −6, 50 μg/ml, drug also in overlay): 165
poliovirus plaques (poliovirus; second run, dilution −7, 50 μg/ml, drug also in overlay): 18 and 16
effect on the cell monolayer (Vero cells; 50 μg/ml, after two days of incubation): severely affected
cytotoxicity on Vero cell monolayers (Vero cells; prolonged exposure (several days) to 50 μg/ml): cytotoxic effects; also recorded: cytotoxicity
virus titers (HSV-1 [7]): negligible drop in virus titers
